From US20040219123A1, “Invert emulsions comprising DHEA” (GALDERMA RESEARCH & DEVELOPMENT, S.N.C., priority 2001, published 2004)

How the values were obtained:
[1] = Maximum solubility of DHEA in lipophilic excipients (12 h stirring with excess active, filtration, HPLC); assay type: physicochemical; conditions: room temperature
Protocol: In Table 1 are various examples showing the low solubility of DHEA in a lipophilic phase:
These maximum solubilities of DHEA were measured after stirring for 12 h with a magnetic stirrer bar, at room temperature, with an excess of active ingredient in the excipient to be analyzed. The suspension is then filtered (1.2 μm) and then the filtrate is assayed by HPLC.
Above the concentration measured, there is recrystallization of the DHEA at room temperature.

[2] = cited from earlier work

C[C@]12CC[C@H](O)CC1=CC[C@@H]1[C@@H]2CC[C@]2(C)C(=O)CC[C@@H]12 [DHEA, 3-beta-hydroxyandrosteron-5-en-17-one]
Solubility (% w/w) ([1]; in Caprylic/capric triglycerides): 1.77% w/w | Solubility (% w/w) ([1]; in Cetearyl isononanoate): 0.83% w/w | Solubility (% w/w) ([1]; in Cyclomethicone): 0.04% w/w | Solubility (% w/w) ([1]; in Dimethicone): 0.17% w/w | Solubility (% w/w) ([1]; in Isopropyl palmitate): 1.37% w/w | Solubility (% w/w) ([1]; in Mineral oil): 1.00% w/w | Solubility (% w/w) ([1]; in Octyl palmitate): 1.00% w/w | Solubility (% w/w) ([1]; in Sesame oil): 1.40% w/w | Solubility (% w/w) ([1]; in Squalane): 0.10% w/w | maximum solubility in water [2]: 20 µg/mL
